Tested on: OPN production in A549 cells
Assay: OPN production in culture supernatant by ELISA, per mg cell protein
Type: cell-based, human
Settings: for amount of the OPN production vs control group: 2 days, significance level less than 1%
Experimental: Brefelamide (Compound 1) was added to a culture liquid containing cells of human liver cancer-derived cell line HepG2, human non-small cell lung cancer-derived cell line A549, human renal cell carcinoma-derived cell line OUR-10, or human pancreatic cancer-derived cell line QGP-1, and the amount of OPN in the culture supernatant after 2 days was measured using Human Osteopontin Immunoassay kit (R&D systems). The confirmation test was performed by comparison of the OPN amount of Compound 1-treated group with that of DMSO-treated group (control group). In addition, Compounds 6, 19, 26, and 38 which are brefelamide derivatives were added to a culture liquid containing cells of human non-small cell lung cancer-derived cell line A549, and a similar confirmation test to the above-mentioned test was performed.
Compounds 1, 6, 19, 26, and 38 have also a cell growth inhibitory effect. Thus, in order to properly evaluate the inhibitory effect of the compounds on the OPN production, the 1×CCLR solution used in luciferase assay was added to cells remaining in each well after removal of culture supernatant to prepare a cell lysate, and the amount of protein in the cell lysate was measured using BCA Protein Assay Kit (Thermo Scientific). The influence of Compound 1 on the amount of the OPN production was evaluated by comparison of the amount of OPN per milligram of protein.
HepG2 cells or A549 cells were suspended in DMEM medium containing 10% FCS and 1% P/S at 4×10^4 cells/mL to obtain a cell suspension, and the cell suspension was dispensed into each well of a 24-well plate in an amount of 500 μL. In order to perform the test in triplicate, 3 wells were prepared for each control group, and 3 wells were prepared for each test compound-treated group at each concentration. The 24-well Plate was incubated in a CO2 incubator (at 37° C., and 3% CO2) for 24±4 hours.
Compound 1, 6, 19, 26, and 38 which are test compounds were dissolved in DMSO to prepare a 50 mmol/L solution of each compound, and the solutions were stored at −80° C. The solution of Compound 1 was diluted with DMSO to prepare 2.5 mmol/L and 5 mmol/L solutions (FIG. 1), 3.125 mmol/L and 6.25 mmol/L solutions (FIG. 2), 6.25 mmol/L and 12.5 mmol/L solutions (FIG. 3), or 5 mmol/L and 10 mmol/L solutions (FIG. 4). The two solutions of Compound 1 at different concentrations were added in an amount of 2 μL per well to wells in which HepG2, A549, OUR-10, or QGP-1 cells were culture, respectively. Only DMSO was added in an amount of 2 μL to each control well.
Similarly, the 50 mmol/L solution of Compound 6 was stared at −80° C., and the solution was diluted with DMSO to prepare 2.5 mmol/L and 5 mmol/L solutions (FIG. 5). The two solutions of Compound 6 at different concentrations were added in an amount of 2 μL per well to wells in which A549 cells were cultured. Only DMSO was added in an amount of 2 μL to the control well.
Also, the 50 mmol/L solutions of Compounds 19, 26, and 38 were stored at −80° C., and each solution was diluted with DMSO to prepare 3.125 mmol/L and 6.25 mmol/L solutions (FIGS. 8 to 10). The two solutions of Compound 19, 26, or 38 at different concentrations were added in an amount of 2 μL per well to wells in which A549 cells were cultured, respectively. Only DMSO was added in an amount of 2 μL to each control well.
The 24-well plate was shaken to mix the solution in each well, and was then incubated in a CO2 incubator (at 37° C. and 5% CO2) for 48±4 hours. Then, the total amount of the resulting culture supernatant was transferred into a 1.5 mL tube, and D-PBS(−) (500 μL) was added to each well containing cells.
The 24-well plate was gently shaken to remove D-PBS(−), and then 5×CCLR used in luciferase assay was diluted to 5 times with water to prepare 1×CCLR. The prepared 1×CCLR was dispensed into each well in an amount of […]. The 24-well plate was then rocked on a rocking shaker for 15 minutes. […]

[1] = concentration increased from 12.5 μmol/L to 25 μmol/L

Compound	amount of the OPN production vs control group (10 μmol/L)	amount of the OPN production vs control group (20 μmol/L)	OPN production, dependence on concentration (concentration increased from 10 μmol/L to 20 μmol/L)	amount of the OPN production vs control group (12.5 μmol/L)	amount of the OPN production vs control group (25 μmol/L)	OPN production, dependence on concentration [1]
COc1ccc(Oc2cccc(C(=O)CCNC(=O)c3ccc(O)cc3)c2N)cc1 [Compound 6, N-(3-(2-Amino-3-(4-methoxyphenoxy)phenyl)-3-oxopropyl)-4-hydroxybenzamide]	significantly inhibited	significantly inhibited	inhibited depending on the concentration			
Nc1ccc(C(=O)NCCC(=O)c2cccc(Oc3ccc(Cl)cc3)c2N)cc1 [Compound 19, N-(3-(2-Amino-3-(4-chlorophenoxy)phenyl)-3-oxopropyl)-4-aminobenzamide]				significantly inhibited	significantly inhibited	inhibited depending on the concentration
COc1ccc(Oc2cccc(NC(=O)CCNC(=O)c3ccc(O)cc3)c2)cc1 [Compound 26, N-(3-(3-(4-Methoxyphenoxy)phenylamino)-3-oxopropyl)-4-hydroxybenzamide]						inhibited depending on the concentration
O=C(CCNC(=O)c1ccc(O)cc1)Nc1cccc(Oc2ccc(Cl)c(Cl)c2)c1 [Compound 38, N-(3-(3-(3,4-dichlorophenoxy)phenylamino)-3-oxopropyl)-4-hydroxybenzamide]				significantly inhibited	significantly inhibited	inhibited depending on the concentration
